# Where two headings read alike, the source gives them in different places. *1 amine or outer side, *2 acyl side, *3 side chain or, on linkers, in order; H or OH if unused. Where a SMILES comes first, the peptide text is derived from it. Bridges are numbered along the chain shown (N, C = ends). Roman numbers before positions name the chains, in order. [ ]: non-standard residue; d: D form. The star is where a group is joined. Hexamethylenediamine = C(CCCN[*:2])CCN[*:1]; Dip = N[C@H](C(=O)O)C(c1ccccc1)c1ccccc1; Chg = N[C@H](C(=O)O)C1CCCCC1; NMeA = CN[C@@H](C)C(=O)O; Cbz = O=C(OCc1ccccc1)*; CH2F = FC*
# Assays:
# [1] = system: Primary human lung fibroblasts (MRC5 cells); assay: Death ligand-induced cell death in MRC5 cells, Sytox green, Incucyte; assay type: cell-based; settings: for inhibition of TRAIL-induced cell death: MRC5 cells, FIG. 5
# [2] = system: Human pancreatic ductal epithelial cells (HPDECs); assay: Death ligand-induced cell death in HPDECs, Sytox green, Incucyte; assay type: cell-based
# [3] = system: Tnfr1KOHoil-1E-KO mice; assay: Cell death-driven lethal skin inflammation (dermatitis) model, Tnfr1KO Hoil-1E-KO mice; assay type: in vivo; settings: treated once inflammation has been initiated (from 30 days onwards)
# [4] = system: NIH3T3 cells; assay: Death ligand-induced cell death in NIH3T3 cells, Sytox green, Incucyte; assay type: cell-based, mouse; settings: in presence of zVAD-fmk
# [5] = system: MRC5 cells; assay: Western blot of cell lysates of IFN-treated MRC5 cells; assay type: cell-based, human; settings: IFNs for 24 h
# Protocol: FIG. 6: MRC5 cells were treated with the indicated IFNs for 24 h before cells were lysed and cell lysates were analysed for presence of the indicated proteins by western blotting.
# [6] = system: Lung endothelial cells (LECs); assay type: cell-based, mouse; settings: for sensitivity of cells to death ligand-induced cell death: 1 μg/ml Death Ligand, with zVAD
# [7] = system: reovirus 1/L (R1/L); settings: non-therapeutic inhibition; BOOP model and ARDS model; cited from earlier work
molecule,measurement,setting,value
"CN1C(=O)NC(Cc2c[nH]c3c(Cl)cccc23)C1=O (stereo not shown) [Nec-1s, reference compound]",inhibition of TRAIL-induced cell death,[1],could not be blocked
same,inhibition of cell death induced by TRAIL in combination with IFN-gamma,[2],"delayed the death of HPDECs induced by TRAIL in combination with IFN-gamma, it could not prevent it"
C[C@]12C=CC(=O)C=C1CC[C@H]1[C@@H]3C[C@@H](O)[C@](O)(C(=O)CO)[C@@]3(C)C[C@H](O)[C@@]12F [Triamcinolone],"ongoing skin inflammation / skin lesions, therapeutic treatment",[3],insufficient to achieve a meaningful therapeutic effect
CN[C@@H](C)C(=O)N[C@H](C(=O)N1CCC[C@H]1C(=O)N[C@H](C(=O)NCCCCCCNC(=O)[C@@H](NC(=O)[C@@H]1CCCN1C(=O)[C@@H](NC(=O)[C@H](C)NC)C1CCCCC1)C(c1ccccc1)c1ccccc1)C(c1ccccc1)c1ccccc1)C1CCCCC1 [BV6] (I: H-[NMeA][Chg]P[Dip] / II: H-[NMeA][Chg]P[Dip]; linker I:C-II:C via Hexamethylenediamine),"toxicity in combination with TRAIL, IFN-gamma alone or IFN-gamma and TRAIL",[1],enhanced toxicity
same,sensitisation of cells by IAP antagonist alone,"[1]; BV6 alone, FIG. 9",did not sensitise these cells
IFN-gamma: type II IFN,sensitisation to death induction by TRAIL or FasL,"[4]; IFN pretreatment 24 hr, 1 μg/ml Death Ligand",significantly sensitised them to death induction by TRAIL or FasL
same,cell death induced by IFN alone,[4]; without death ligand,sufficient to significantly induce cell death
same,effect of IFN pre-treatment on sensitivity to TRAIL-induced cell death,"[1]; IFN overnight, then TRAIL 1 μg/ml",did not increase their sensitivity to cell death induction by TRAIL
same,FN14 expression (western blot),[5],upregulation of FN14
same,MLKL expression (western blot),[5],strongly upregulated
same,effect of IFN pre-treatment on sensitivity to death ligand-induced cell death,[6]; IFN overnight,sensitised these cells to FasL-mediated death
same,effect of IFN pre-treatment on sensitivity to TRAIL-induced cell death,"[2]; IFN overnight, then TRAIL 100 ng/ml",did not increase their sensitivity to cell death induction by TRAIL
same,effect of IFN pre-treatment on kinetics of TRAIL-induced cell death,[2]; compared to TRAIL alone,accelerated TRAIL-induced cell death
"COC(=O)C[C@H](NC(=O)[C@H](C)NC(=O)[C@@H](NC(=O)OCc1ccccc1)C(C)C)C(=O)CF [zVAD-fmk, reference compound] (Cbz-Val-Ala-Asp(OMe)-CH2F)","inhibition of cell death induced by the different combinations (BV6, TRAIL, IFN-gamma)",[1]; FIG. 9,completely inhibited
same,inhibition of TRAIL-induced cell death,[1],completely blocked
same,dependence of observed cell death on caspase inhibition,[6]; all death ligands,required inhibition of caspases by zVAD
same,inhibition of cell death induced by TRAIL in combination with IFN-gamma,[2]; HPDECs,"delayed the death of HPDECs induced by TRAIL in combination with IFN-gamma, it could not prevent it"
CC[C@H](C)[C@H](NC(=O)OCc1ccccc1)C(=O)N[C@@H](CCC(=O)OC)C(=O)N[C@H](C(=O)N[C@@H](CC(=O)OC)C(=O)CF)[C@@H](C)O [zIETD-fmk] (Cbz-IE(OMe)TD(OMe)-CH2F),"aberrant cell death, inflammation and fibrosis in lung tissue",[7],"reduces aberrant cell death, inflammation and fibrosis in lung tissue"
"FasL: Death Ligand, Fas ligand (protein, UniProt P48023 130-281, looked up) Tumor necrosis factor ligand …: QIGHPSPPPEKKELRKVAHLTGKSNSRSMPLEWEDTYGIVLLSGVKYKKGGLVINETGLYFVYSKVYFRGQSCNNLPLSHKVYMRNSKYPQDLVMMEGKMMSYCTTGQMWARSSYLGAVFNLTSADHLYVNVSELSLVNFEESQTFFGLYKL",sensitivity of cells to death ligand-induced cell death,[6],relatively insensitive
"TRAIL: Death Ligand, also known as Apo2L (protein, UniProt P50591 1-281, looked up) Tumor necrosis factor ligand …: MAMMEVQGGPSLGQTCVLIVIFTVLLQSLCVAVTYVYFTNELKQMQDKYSKSGIACFLKEDDSYWDPNDEESMNSPCWQVKWQLRQLVRKMILRTSEETISTVQEKQQNISPLVRERGPQRVAAHITGTRGRSNTLSSPNSKNEKALGRKINSWESSRSGHSFLSNLHLRNGELVIHEKGFYYIYSQTYFRFQEEIKENTKNDKQMVQYIYKYTSYPDPILLMKSARNSCWSKDAEYGLYSIYQGGIFELKENDRIFVSVTNEHLIDMDHEASFFGAFLVG",sensitivity of cells to death ligand-induced cell death,[1]; 1 μg/ml Death Ligand,exquisitely sensitive to TRAIL-induced apoptosis
same,sensitivity of cells to death ligand-induced cell death,[6],highly sensitive to cell death induction
same,sensitivity of cells to death ligand-induced cell death,[2]; 100 ng/ml Death Ligand,exquisitely sensitive to TRAIL-induced apoptosis
